Measurements: patent US8501770B2 (ArQule, Inc., priority 2009, dated 2013)
pIC50: −log10 of the molar value. Counter-ions that a name gives are not always drawn.

These molecules were tested against Full-length inactive AKT1 (Homo sapiens, UniProt P31749) (assay: Inactive Akt Alpha Screen Assay). Conditions: AlphaScreen assay (values not marked with *); read-out: Akt1 IC50, (AlphaScreen) (μM) (or if marked with “*” HTRF assay).
Format: biochemical
In short: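 AlphaScreen read-out (excitation 640 nm, emission 570 nm) after 90 min incubation at room temperature in the dark. Signal comes from crosstide phosphorylation by AKT1, which was activated by added PDK1, MAPKAPK2, ATP and lipid vesicles, captured via phospho-AKT substrate antibody and streptavidin beads.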

Chain of Full-length inactive AKT1 (P31749 whole entry): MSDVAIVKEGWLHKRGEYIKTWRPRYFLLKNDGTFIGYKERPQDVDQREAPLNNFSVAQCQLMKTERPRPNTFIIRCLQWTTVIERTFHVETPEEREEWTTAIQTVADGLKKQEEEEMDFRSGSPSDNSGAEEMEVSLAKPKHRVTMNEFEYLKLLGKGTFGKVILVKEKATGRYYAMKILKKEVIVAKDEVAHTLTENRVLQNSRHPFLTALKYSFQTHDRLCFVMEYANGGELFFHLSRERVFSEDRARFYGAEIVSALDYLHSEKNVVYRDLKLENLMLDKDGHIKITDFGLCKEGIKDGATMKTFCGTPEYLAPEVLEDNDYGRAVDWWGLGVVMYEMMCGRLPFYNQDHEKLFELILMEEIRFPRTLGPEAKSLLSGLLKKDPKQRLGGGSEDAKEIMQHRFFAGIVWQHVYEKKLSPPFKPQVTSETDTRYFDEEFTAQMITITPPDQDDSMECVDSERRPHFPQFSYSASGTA

SMILES | IC50
CNC(=O)c1cc(-c2ccc3nc(-c4cccnc4N)n(-c4ccc(C5(N)CCC5)cc4)c3n2)ccc1F [Example 440, 5-{3-[4-(1-aminocyclobutyl)phenyl]-2-(2-aminopyridin-3-yl)-3H-imidazo[4,5-b]pyridin-5-yl}-2-fluoro-N-methylbenzamide] | 0.0054 µM

Same assay, conditions: values not marked with "*": AlphaScreen assay; read-out: Akt1 IC50, (AlphaScreen)

SMILES | pIC50
Nc1ncccc1-c1nc2cccnc2n1-c1ccc(CN2CCOCC2)cc1 [Example 15] | 5.75
Nc1ncccc1-c1nc2cccnc2n1-c1ccc(CNC(=O)c2ccc3c(c2)CCO3)cc1 [Example 64] | 5.95
Cc1ccc2cc(NC(=O)Cc3ccc(-n4c(-c5cccnc5N)nc5cccnc54)cc3)ccc2n1 [Example 123, hydrochloride] | 6.89
Cn1ccc(S(=O)(=O)NCc2ccc(-n3c(-c4cccnc4N)nc4cccnc43)cc2)n1 [Example 109, hydrochloride] | 6.07
Nc1ncccc1-c1nc2cccnc2n1-c1ccc(CNC(=O)c2ccc(Br)cc2)cc1 [Example 40] | 7.05
Nc1ncccc1-c1nc2cc(Br)cnc2n1-c1ccc(CNS(=O)(=O)c2cccs2)cc1 [Example 155, N-{4-[2-(2-aminopyridin-3-yl)-6-bromo-3H-imidazo[4,5-b]pyridin-3-yl]benzyl}thiophene-2-sulfonamide] | 6.85
Nc1ncccc1-c1nc2cc(-c3ccc4cc[nH]c4c3)cnc2n1-c1ccc(CNC(=O)c2ccccc2)cc1 [Example 139, N-{4-[2-(2-aminopyridin-3-yl)-6-(1H-indol-6-yl)-3H-imidazo[4,5-b]pyridin-3-yl]benzyl}benzamide] | 6.44
CC(C)CS(=O)(=O)NCc1ccc(-n2c(-c3cccnc3N)nc3cc(Br)cnc32)cc1 [Example 152, N-{4-[2-(2-aminopyridin-3-yl)-6-bromo-3H-imidazo[4,5-b]pyridin-3-yl]benzyl}-2-methylpropane-1-sulfonamide] | 6.62

Same assay, conditions: values not marked with "*"; read-out: Akt1 IC50, (AlphaScreen)

SMILES | pIC50
Cc1cnc2c(c1)nc(-c1cccnc1N)n2-c1ccc(CNC(=O)c2cc(F)ccc2F)cc1 [Example 283, N-(4-(2-(2-aminopyridin-3-yl)-6-methyl-3H-imidazo[4,5-b]pyridin-3-yl)benzyl)-2,5-difluorobenzamide] | 6.66
CC(=O)c1cccc(-c2ccc3nc(-c4cccnc4N)n(-c4ccc(C5(N)CCC5)cc4)c3n2)c1 [Example 372, 1-(3-(3-(4-(1-aminocyclobutyl)phenyl)-2-(2-aminopyridin-3-yl)-3H-imidazo[4,5-b]pyridin-5-yl)phenyl)ethanone] | 8.68
COc1cc(OC)cc(-c2ccc3nc(-c4cccnc4N)n(-c4ccc(C5(N)CCC5)cc4)c3n2)c1 [Example 411, 3-{3-[4-(1-aminocyclobutyl)phenyl]-5-(3,5-dimethoxyphenyl)-3H-imidazo[4,5-b]pyridin-2-yl}pyridin-2-amine] | 8.35
Nc1ncccc1-c1nc2ccc(-c3ccc4scnc4c3)nc2n1-c1ccc(C2(N)CCC2)cc1 [Example 416, 3-{3-[4-(1-aminocyclobutyl)phenyl]-5-(1,3-benzothiazol-5-yl)-3H-imidazo[4,5-b]pyridin-2-yl}pyridin-2-amine] | 8.38
COc1ccc(S(=O)(=O)NCc2ccc(-n3c(-c4cccnc4N)nc4cc(-c5cccnc5)cnc43)cc2)cc1 [Example 206, N-(4-(2-(2-aminopyridin-3-yl)-6-(pyridin-3-yl)-3H-imidazo[4,5-b]pyridin-3-yl)benzyl)-4-methoxybenzenesulfonamide] | 6.89
Nc1ncccc1-c1nc2ccc(-c3cccc4[nH]ccc34)nc2n1-c1ccc(C2(N)CCC2)cc1 [Example 397, 3-(3-(4-(1-aminocyclobutyl)phenyl)-5-(1H-indol-4-yl)-3H-imidazo[4,5-b]pyridin-2-yl)pyridin-2-amine] | 8.42
CC(C)(C)OC(=O)NC1(c2ccc(-n3c(-c4cccnc4N)nc4ccc(-c5ccccc5)nc43)cc2)CCC1 [Example 350, tert-butyl (1-(4-(2-(2-aminopyridin-3-yl)-5-phenyl-3H-imidazo[4,5-b]pyridin-3-yl)phenyl)cyclobutyl)carbamate] | 5.85
Nc1ncccc1-c1nc2ccc(Cl)nc2n1-c1ccc(CNC(=O)c2ccccc2)cc1 [Example 198, N-(4-(2-(2-aminopyridin-3-yl)-5-chloro-3H-imidazo[4,5-b]pyridin-3-yl)benzyl)benzamide] | 7.21
Cc1noc(C)c1-c1ccc2nc(-c3cccnc3N)n(-c3ccc(CNC(=O)c4cccc(F)c4)cc3)c2n1 [Example 310, N-(4-(2-(2-aminopyridin-3-yl)-5-(3,5-dimethylisoxazol-4-yl)-3H-imidazo[4,5-b]pyridin-3-yl)benzyl)-3-fluorobenzamide] | 7.10
Nc1ncccc1-c1nc2ccc(N3CCCCC3)nc2n1-c1ccc(CNC(=O)c2ccc(Br)cc2)cc1 [Example 191, N-(4-(2-(2-aminopyridin-3-yl)-5-(piperidin-1-yl)-3H-imidazo[4,5-b]pyridin-3-yl)benzyl)-4-bromobenzamide] | 5.96
Nc1ncccc1-c1nc2ccc(-c3cccc(N4CCOCC4)c3)nc2n1-c1ccc(C2(N)CCC2)cc1 [Example 390, 3-(3-(4-(1-aminocyclobutyl)phenyl)-5-(3-morpholinophenyl)-3H-imidazo[4,5-b]pyridin-2-yl)pyridin-2-amine] | 8.64
Nc1ncccc1-c1nc2cc(Br)cnc2n1-c1ccc(CNS(=O)(=O)c2ccccc2F)cc1 [Example 171, N-{4-[2-(2-aminopyridin-3-yl)-6-bromo-3H-imidazo[4,5-b]pyridin-3-yl]benzyl}-2-fluorobenzenesulfonamide] | 6.46
CNC(=O)c1cccc(-c2ccc3nc(-c4cccnc4N)n(-c4ccc(CN)cc4)c3n2)c1 [Example 369, 3-(3-(4-(aminomethyl)phenyl)-2-(2-aminopyridin-3-yl)-3H-imidazo[4,5-b]pyridin-5-yl)-N-methylbenzamide] | 8.27
Cc1cnc2c(c1)nc(-c1cccnc1N)n2-c1ccc(CNC(=O)c2ccc(Cl)cc2Cl)cc1 [Example 275, N-(4-(2-(2-aminopyridin-3-yl)-6-methyl-3H-imidazo[4,5-b]pyridin-3-yl)benzyl)-2,4-dichlorobenzamide] | 6.96
CC(C)(C)OC(=O)NCc1ccc(-n2c(-c3cccnc3N)nc3ccc(-c4ccc(CO)cc4)nc32)cc1 [Example 288, tert-butyl 4-(2-(2-aminopyridin-3-yl)-5-(4-(hydroxymethyl)phenyl)-3H-imidazo[4,5-b]pyridin-3-yl)benzylcarbamate] | 6.35
Cc1cnc2c(c1)nc(-c1cccnc1N)n2-c1ccc(CNC(=O)c2ccc(Cl)c(Cl)c2)cc1 [Example 266, N-(4-(2-(2-aminopyridin-3-yl)-6-methyl-3H-imidazo[4,5-b]pyridin-3-yl)benzyl)-3,4-dichlorobenzamide] | 6.64
Nc1ncccc1-c1nc2ccc(-c3ccc(C(=O)O)o3)nc2n1-c1ccc(CNC(=O)c2cccc(F)c2)cc1 [Example 312, 5-(2-(2-aminopyridin-3-yl)-3-(4-((3-fluoro-benzamido)methyl)phenyl)-3H-imidazo[4,5-b]pyridin-5-yl)furan-2-carboxylic acid] | 7.47
N#Cc1cccc(NC(=O)c2ccc(-n3c(-c4cccnc4N)nc4cccnc43)cc2)c1 [Example 183, 4-[2-(2-aminopyridin-3-yl)-3H-imidazo[4,5-b]pyridin-3-yl]-N-(3-cyanophenyl)benzamide] | 5.82
Nc1ncccc1-c1nc2ccc(-c3ccncc3)nc2n1-c1ccc(CNC(=O)c2ccccc2)cc1 [Example 235, N-(4-(2-(2-aminopyridin-3-yl)-5-(pyridin-4-yl)-3H-imidazo[4,5-b]pyridin-3-yl)benzyl)benzamide] | 6.89
Cn1cnc(S(=O)(=O)NCc2ccc(-n3c(-c4cccnc4N)nc4cc(Br)cnc43)cc2)c1 [Example 166, N-{4-[2-(2-aminopyridin-3-yl)-6-bromo-3H-imidazo[4,5-b]pyridin-3-yl]benzyl}-1-methyl-1H-imidazole-4-sulfonamide] | 6.36
COc1ccc(F)c(-c2ccc3nc(-c4cccnc4N)n(-c4ccc(C5(N)CCC5)cc4)c3n2)c1 [Example 413, 3-{3-[4-(1-aminocyclobutyl)phenyl]-5-(2-fluoro-5-methoxyphenyl)-3H-imidazo[4,5-b]pyridin-2-yl}pyridin-2-amine] | 8.15
Nc1ncccc1-c1nc2ccc(-c3ccccc3)nc2n1-c1ccc(NC(=O)c2ccccc2)cc1 [Example 254, N-(4-(2-(2-aminopyridin-3-yl)-5-phenyl-3H-imidazo[4,5-b]pyridin-3-yl)phenyl)benzamide] | 7.09
COc1ccc(NC(=O)c2ccc(-n3c(-c4cccnc4N)nc4cccnc43)cc2)cc1F [Example 185, 4-[2-(2-aminopyridin-3-yl)-3H-imidazo[4,5-b]pyridin-3-yl]-N-(3-fluoro-4-methoxyphenyl)benzamide] | 5.60
Nc1ncccc1-c1nc2ccc(-c3ccsc3)nc2n1-c1ccc(CNC(=O)c2cccc(F)c2)cc1 [Example 317, N-(4-(2-(2-aminopyridin-3-yl)-5-(thiophen-3-yl)-3H-imidazo[4,5-b]pyridin-3-yl)benzyl)-3-fluorobenzamide] | 7.62
Nc1ncccc1-c1nc2ccc(-c3ccccc3)nc2n1-c1ccc(C2(C(=O)NCCO)CCC2)cc1 [Example 379, 1-(4-(2-(2-aminopyridin-3-yl)-5-phenyl-3H-imidazo[4,5-b]pyridin-3-yl)phenyl)-N-(2-hydroxyethyl)cyclobutanecarboxamide] | 6.54
CC(C)(C)c1ccc(C(=O)NCc2ccc(-n3c(-c4cccnc4N)nc4cccnc43)cc2)cc1 [Example 172, N-{4-[2-(2-aminopyridin-3-yl)-3H-imidazo[4,5-b]pyridin-3-yl]benzyl}-4-tert-butylbenzamide] | 7.00
CC(=O)Nc1ccc(NC(=O)Cc2ccc(-n3c(-c4cccnc4N)nc4cc(F)cnc43)cc2)cc1 [Example 342, N-(4-acetamidophenyl)-2-(4-(2-(2-aminopyridin-3-yl)-6-fluoro-3H-imidazo[4,5-b]pyridin-3-yl)phenyl)acetamide] | 7.21
